What follows are compounds tested on Enterococcus faecium (assay: Antibacterial activity against clinical isolate Enterococcus faecium assessed as reduction in microbial growth by broth microdilution).
Format: functional, organism-based

SMILES	MIC	IC50
CCCCCCCCCC1CC(=O)N[C@@H](CC(C)C)C(=O)N[C@@H](CO)C(=O)N[C@@H]([C@@H](C)O)C(=O)N[C@@H](Cc2ccccc2)C(=O)N[C@@H](C(C)C)C(=O)O1 (stereo not given in full)	> 125 µg/mL	–
CCCCCC1CC(=O)N[C@H](CC(C)C)C(=O)N[C@@H](CO)C(=O)N[C@@H]([C@@H](C)O)C(=O)N[C@@H](Cc2ccccc2)C(=O)N[C@@H](CC(C)C)C(=O)O1 (stereo not given in full)	> 125 µg/mL	–
CCCCCC1CC(=O)N[C@H](CC(C)C)C(=O)N[C@@H](CO)C(=O)N[C@@H]([C@@H](C)O)C(=O)N[C@@H](Cc2ccccc2)C(=O)N[C@@H](C(C)C)C(=O)O1 (stereo not given in full)	> 125 µg/mL	–
CCCCCCCC1CC(=O)N[C@H](CC(C)C)C(=O)N[C@@H](CO)C(=O)N[C@@H]([C@@H](C)O)C(=O)N[C@@H](Cc2ccccc2)C(=O)N[C@@H](CC(C)C)C(=O)O1 (stereo not given in full)	15.6 µg/mL	8.4 µg/mL
CCCCCC1CC(=O)N[C@H](CC(C)C)C(=O)N[C@@H](CO)C(=O)N[C@@H]([C@@H](C)O)C(=O)N[C@@H](Cc2ccccc2)C(=O)N[C@@H]([C@@H](C)CC)C(=O)O1 (stereo not given in full)	62.5 µg/mL	53.1 µg/mL
CCCCCCCC1CC(=O)N[C@@H](CC(C)C)C(=O)N[C@@H](CO)C(=O)N[C@@H]([C@@H](C)O)C(=O)N[C@@H](Cc2ccccc2)C(=O)N[C@@H](C(C)C)C(=O)O1 (stereo not given in full)	> 125 µg/mL	–
CCCCCCCCCC1CC(=O)N[C@H](CC(C)C)C(=O)N[C@@H](CO)C(=O)N[C@@H]([C@@H](C)O)C(=O)N[C@@H](Cc2ccccc2)C(=O)N[C@@H]([C@@H](C)CC)C(=O)O1 (stereo not given in full)	> 125 µg/mL	–
CCCCCCCCCC1CC(=O)N[C@H](CC(C)C)C(=O)N[C@@H](CO)C(=O)N[C@@H]([C@@H](C)O)C(=O)N[C@@H](Cc2ccccc2)C(=O)N[C@@H](CC(C)C)C(=O)O1 (stereo not given in full)	> 125 µg/mL	–

— ChEMBL document CHEMBL5120827, “Metabolomics and Genomics Approach for the Discovery of Serrawettin W2 Lipopeptides from Serratia marcescens NP2” (J Nat Prod, 2022)
